Marks after values point to notes of the source that are not given here.
System: m-PGES1 mRNA
Assay: m-PGES1 mRNA in human PBMC with and without TNF-α, quantitative RT-PCR
Format: cell-based
Description: Whole blood was collected from donors in EDTA-supplemented pouches at the Etablissement Français du Sang (Brest, France). The PBMC were isolated then from whole blood under sterile conditions within 36 hours after collection. Gradient density centrifugation was carried out on Ficoll (Eurobio). After washing in RPMI 1640 medium (Eurobio), cells were suspended in RPMI 1640 medium supplemented with 10% heat-inactivated fetal calf serum (Eurobio), 2 mM glutamine (D. Dutscher), 100 U of penicillin/ml (D. Dutscher), and 100 μg of streptomycin/ml (D. Dutscher). Monocytes were selected by plastic adherence for 1 h and approximately 10^7 cells were plated in 6-well tissue culture plates (3 mL medium per well). All incubations were performed in a humidified incubator at 37° C. and 5% CO2. Cells were recovered and dispersed in 2 ml fresh incubation medium supplemented with either 7β-hydroxyEPIA, 7β-hydroxy-DHEA, or 7α-hydroxy-DHEA (in 20 μL ethanol) in the presence or absence of 0.01 μg/mL TNF-α (Sigma-Aldrich). Control incubations contained 20 μl ethanol but no steroid. Supernatants were collected after 4 h and 24 hours incubations for measurement of their PG contents and cells were used for subsequent RNA isolation. A single step extraction method using the Trizol Reagent (Invitrogen, Cergy-Pontoise, France) provided total RNA.
cDNAs were synthesized from TURBO DNase I—treated RNA (Ambion, Huntingdon, UK) using the Superscript first strand synthesis system kit (Invitrogen). RT-PCR amplification mixtures (50 μL) contained 2.5× RealMaster Mix/20×SYBR solution (11.25 μL) (Eppendorf, Le Pecq, France) and 200 nM forward and reverse primers. Reactions were run on a RealPlex ep gradient S mastercycler (Eppendorf). The cycling conditions were 10 minutes at 95° C. and 45 cycles at 95° C., 55° C. and 68° C. for 15 seconds, 30 seconds and 30 seconds, respectively. Each assay included a standard curve of four serial dilution points of control cDNA. The HPRT1 housekeeping gene was used for quantification. All oligonucleotide primers (Table 2) were synthesized by Genecust/Distribio (Evry, France). The specificity of the amplified product was monitored by examining the melting curve of the product and confirmed by analysis on agarose gel electrophoresis.
All assays were carried out in triplicate and results were plotted as mean±S.E.M. One-way analysis of variance was performed followed by Duncan's multiple range tests in order to compare the differences between groups. Differences were considered statistically significant when p<0.05.

CC12CCC3C(C1CCC2=O)[C@@H](O)C[C@H]1C[C@@H](O)CCC31C (stereo partly drawn) [Compound 7β-OH-EPIA, 7β-hydroxy-EPIAndrosterone]
mPGES1 (mRNA), mRNA production relative to controls (1 nM + TNF-α (10 ng/mL), 4 h): 1.11 ± 0.235 | mPGES1 (mRNA), mRNA production relative to controls (1 nM + TNF-α (10 ng/mL), 24 h): 21.6 ± 4.28^ | mPGES1 (mRNA), mRNA production relative to controls (1 nM, 4 h, without TNF-α): 0.76 ± 0.053^b | mPGES1 (mRNA), mRNA production relative to controls (1 nM, 24 h, without TNF-α): 1.77 ± 0.324^a | mPGES1 (mRNA), mRNA production relative to controls (10 nM + TNF-α (10 ng/mL), 4 h): 1.15 ± 0.183 | mPGES1 (mRNA), mRNA production relative to controls (10 nM + TNF-α (10 ng/mL), 24 h): 6.29 ± 1.131^d | mPGES1 (mRNA), mRNA production relative to controls (10 nM, 4 h, without TNF-α): 0.94 ± 0.067 | mPGES1 (mRNA), mRNA production relative to controls (10 nM, 24 h, without TNF-α): 3.61 ± 0.662^a | mPGES1 (mRNA), mRNA production relative to controls (100 nM + TNF-α (10 ng/mL), 4 h): 1.29 ± 0.323 | mPGES1 (mRNA), mRNA production relative to controls (100 nM + TNF-α (10 ng/mL), 24 h): 6.79 ± 2.898^d | mPGES1 (mRNA), mRNA production relative to controls (100 nM, 4 h, without TNF-α): 0.71 ± 0.058^b | mPGES1 (mRNA), mRNA production relative to controls (100 nM, 24 h, without TNF-α): 2.63 ± 0.475^a
